According to ChEMBL document CHEMBL1201862, “PubChem BioAssay data set” (2004):
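The compound was tested at five concentrations on cells cultured in 96-well plates, with a 48-hour exposure period. GI50 marks 50% less growth.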 Active and inactive are the calls of the source. Cut-off read from the data, not from the text of the source: active = GI50 up to about 1.1 µM and inactive = higher.

Legend:
Experiment in all cases: inhibition of tumour cell growth, NCI panel, 48 h
DLD-1 = tested on: DLD-1
SK-OV-3 = tested on: SK-OV-3
RPMI-8226 = tested on: RPMI-8226
M19-MEL = tested on: M19-MEL
NCI-H460 = tested on: NCI-H460
KM-20L2 = tested on: KM-20L2
786-0 = tested on: 786-0
HOP-18 = tested on: HOP-18
HOP-62 = tested on: HOP-62
NCI-H226 = tested on: NCI-H226
LOX IMVI = tested on: LOX IMVI
SR = tested on: SR
EKVX = tested on: EKVX
MCF7 = tested on: MCF7
NCI/ADR-RES = tested on: NCI/ADR-RES
PC-3 = tested on: PC-3
MDA-N = tested on: MDA-N
MDA-MB-435 = tested on: MDA-MB-435
T47D = tested on: T47D
BT-549 = tested on: BT-549

Measured: GI50

CC1(C)COC2C(N(Cc3ccccc3)Cc3ccccc3)C(=O)N21 (configuration not stated)
inactive: DLD-1 50 µM | SK-OV-3 24.9 µM | RPMI-8226 20.9 µM | M19-MEL 73.8 µM | NCI-H460 39.7 µM | KM-20L2 37.1 µM | 786-0 31 µM | HOP-18 50 µM | HOP-62 36.9 µM | NCI-H226 47.2 µM | LOX IMVI 46.6 µM | SR 19.1 µM | EKVX 73.1 µM

Cc1cn(Cc2cnnn2CC2OC(n3cc(C)c(=O)[nH]c3=O)CC2O)c(=O)[nH]c1=O (configuration not stated)
inactive: SK-OV-3 > 100 µM | RPMI-8226 > 100 µM | MCF7 > 100 µM | NCI/ADR-RES > 100 µM | PC-3 > 100 µM | MDA-N > 100 µM | MDA-MB-435 > 100 µM | T47D > 100 µM | HOP-62 > 100 µM | NCI-H226 > 100 µM | LOX IMVI > 100 µM | BT-549 > 100 µM | EKVX > 100 µM

COc1ccccc1NC(=O)/C(=C/c1ccccc1)C(C)=O
inactive: DLD-1 38.8 µM | SK-OV-3 44.5 µM | RPMI-8226 35.5 µM | M19-MEL 65.2 µM | NCI-H460 37.2 µM | 786-0 35.1 µM | HOP-18 > 100 µM | HOP-62 59.4 µM | NCI-H226 37.1 µM | LOX IMVI 37.2 µM | SR 36.6 µM | EKVX 45.4 µM

OCC1OC(n2ccc3cnccc32)CC1O (configuration not stated)
inactive: DLD-1 > 100 µM | SK-OV-3 > 100 µM | RPMI-8226 > 100 µM | M19-MEL > 100 µM | NCI-H460 > 100 µM | 786-0 > 100 µM | HOP-18 > 100 µM | HOP-62 > 100 µM | NCI-H226 > 100 µM | LOX IMVI > 100 µM | SR > 100 µM | EKVX > 100 µM

FC(F)(F)C(C1=NC(C(F)(F)F)(C(F)(F)F)N=C(N2CCOCC2)O1)C(F)(F)F
inactive: SK-OV-3 31.3 µM | RPMI-8226 20.8 µM | MCF7 > 10 µM | NCI/ADR-RES 16.6 µM | PC-3 16.9 µM | MDA-N 19.1 µM | NCI-H460 29 µM | MDA-MB-435 15.3 µM | T47D 23.4 µM | LOX IMVI 17.8 µM | SR 18.8 µM | BT-549 17.9 µM | EKVX 17.1 µM

COc1cc(C(=O)C/C(CCC(=O)Nc2ccc(Cl)cc2Cl)=N/NC(=O)C(=O)NN)ccc1O
inactive: DLD-1 > 100 µM | SK-OV-3 > 100 µM | M19-MEL > 100 µM | NCI-H460 > 100 µM | KM-20L2 > 100 µM | 786-0 > 100 µM | HOP-18 > 100 µM | HOP-62 > 100 µM | NCI-H226 > 100 µM | LOX IMVI 43.3 µM | EKVX 97.7 µM

CN1C(=O)CN=C(c2ccccc2F)c2cc(N=C=S)ccc21
inactive: SK-OV-3 > 100 µM | MCF7 29.5 µM | NCI/ADR-RES 43.1 µM | PC-3 45.9 µM | MDA-N 54.3 µM | NCI-H460 36.6 µM | MDA-MB-435 35.9 µM | T47D 56.8 µM | 786-0 43.8 µM | HOP-62 > 100 µM | LOX IMVI 41.4 µM | BT-549 58.5 µM | EKVX > 100 µM

CN(C)c1ccc(C2SCC(=O)N2NS(=O)(=O)c2cccc(C(=O)O)c2)cc1 (configuration not stated)
inactive: SK-OV-3 > 100 µM | RPMI-8226 45.9 µM | MCF7 64.9 µM | PC-3 > 100 µM | MDA-N > 100 µM | NCI-H460 76.2 µM | MDA-MB-435 > 100 µM | T47D > 100 µM | 786-0 17.2 µM | HOP-62 > 100 µM | NCI-H226 52 µM | LOX IMVI > 100 µM | BT-549 > 100 µM | EKVX > 100 µM

N#CC1(C#N)C2C=CC(C3CCC=C32)C1(C#N)C#N (configuration not stated)
inactive: SK-OV-3 > 10 µM | RPMI-8226 2.83 µM | MCF7 > 8.2 µM | NCI/ADR-RES > 10 µM | PC-3 > 10 µM | MDA-N > 10 µM | NCI-H460 > 10 µM | MDA-MB-435 > 10 µM | T47D > 5.33 µM | 786-0 > 5.66 µM | HOP-62 > 10 µM | NCI-H226 > 10 µM | LOX IMVI > 10 µM | SR 7.4 µM | BT-549 > 10 µM | EKVX > 10 µM

CCOC(=O)COc1cccc2occc(=O)c12
inactive: DLD-1 > 100 µM | SK-OV-3 > 100 µM | RPMI-8226 > 100 µM | M19-MEL > 100 µM | NCI-H460 > 100 µM | KM-20L2 > 100 µM | 786-0 > 100 µM | HOP-62 > 100 µM | LOX IMVI > 100 µM | EKVX > 100 µM
